For assay [1], the target named is T1, Serine hydrolase RBBP9 (Homo sapiens, UniProt O75884). Description: Displacement of fluorophosphate-rhodamine from RBBP9 transfected in human HEK293T cells proteomes after 30 mins by SDS-PAGE gel fluorescence assay. The assay is classed as cell-based, HEK-293T.
Target sequence in this assay (O75884 whole entry): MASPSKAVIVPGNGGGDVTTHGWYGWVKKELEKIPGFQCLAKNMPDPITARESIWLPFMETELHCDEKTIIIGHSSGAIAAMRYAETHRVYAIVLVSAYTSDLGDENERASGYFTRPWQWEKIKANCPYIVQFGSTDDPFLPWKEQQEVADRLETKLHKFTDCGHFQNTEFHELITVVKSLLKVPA
In assay [2] the target is T1, Serine hydrolase RBBP9. Briefly: Displacement of fluorophosphate-rhodamine from RBBP9 transfected in human HEK293T cells proteomes at 7.9 uM after 30 mins by SDS-PAGE gel fluorescence assay. Type of assay: cell-based. Conditions: HEK-293T.
Target sequence in this assay (O75884 whole entry, looked up): as the sequence (O75884 whole entry) above
Assay [3] has as its target T1, Serine hydrolase RBBP9. Description: Displacement of phenylsulphonate-rhodamine from RBBP9 transfected in human MDA-MB-231 cells proteomes after 30 mins by SDS-PAGE gel fluorescence assay. The assay is classed as cell-based.
Target sequence in this assay (O75884 whole entry, looked up): as the sequence (O75884 whole entry) above
The target of assay [4] is T1, Serine hydrolase RBBP9. Briefly: Displacement of fluorophosphate-rhodamine from RBBP9 transfected in human HEK293T cells proteomes at 20 uM after 30 mins by SDS-PAGE gel fluorescence assay. Type of assay: cell-based. Conditions: HEK-293T.
Target sequence in this assay (O75884 whole entry, looked up): as the sequence (O75884 whole entry) above
Assay [5] deals with T1, Serine hydrolase RBBP9. Briefly: Displacement of fluorophosphate-rhodamine from recombinant RBBP9 transfected in mouse brain membrane proteomes at 200 uM after 30 mins by SDS-PAGE gel fluorescence assay. The assay is classed as cell membranes.
Target sequence in this assay (O75884 whole entry, looked up): as the sequence (O75884 whole entry) above
Assay [6] addresses T1, Serine hydrolase RBBP9. Briefly: Displacement of fluorophosphate-rhodamine from recombinant RBBP9 transfected in mouse brain membrane proteomes after 30 mins by SDS-PAGE gel fluorescence assay. The assay is classed as cell membranes.
Target sequence in this assay (O75884 whole entry): as above
The target of assay [7] is T2, Glutathione S-transferase omega-1 (Homo sapiens) (UniProt P78417).
T2 sequence (whole entry): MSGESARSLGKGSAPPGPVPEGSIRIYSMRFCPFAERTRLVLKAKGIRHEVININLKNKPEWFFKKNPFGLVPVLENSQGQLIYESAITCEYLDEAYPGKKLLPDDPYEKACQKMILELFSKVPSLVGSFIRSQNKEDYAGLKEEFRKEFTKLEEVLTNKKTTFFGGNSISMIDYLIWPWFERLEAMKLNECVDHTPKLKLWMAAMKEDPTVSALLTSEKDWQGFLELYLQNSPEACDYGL
Description: Displacement of phenylsulphonate-rhodamine from GSTO1 in human MDA-MB-231 cells proteomes at 20 uM after 30 mins by SDS-PAGE gel fluorescence assay. Type of assay: cell-based.

Activity calls are given as the source filed them. No cut-off for these calls is given here.

This note sets out measurements from ChEMBL document CHEMBL1156321, “Oxime esters as selective, covalent inhibitors of the serine hydrolase retinoblastoma-binding protein 9 (RBBP9)” (Bioorg Med Chem Lett, 2010).

As for `CC[C@H]1CN2CCc3cc(OC)c(OC)cc3[C@@H]2C[C@@H]1CC1NCCc2cc(OC)c(OC)cc21` (single isomer, unassigned) [EMETINE], the IC50 at Serine hydrolase RBBP9 [1] (hek-293t) was determined as 7800 nM.

Regarding `C/C(=N\OC(=O)c1ccc(Cl)cc1)c1nccs1`, the inhibition at Serine hydrolase RBBP9 [2] stood at 80%; at Serine hydrolase RBBP9 [4] it was 78%. Also, the inhibition entry on Serine hydrolase RBBP9 [3] was “inactive”. In addition, the IC50 on Serine hydrolase RBBP9 [1] was 1900 nM. Moreover, the outcome on Serine hydrolase RBBP9 [5] was inactive.

The compound `C#CCCC(=O)O/N=C(\C)c1nccs1` returned an inhibition on Serine hydrolase RBBP9 [4] of 42%.

The compound `C/C(=N\OC(=O)c1c(-c2ccccc2Cl)noc1C)c1nccs1` displayed an inhibition on Serine hydrolase RBBP9 [4] of 17%.

`C/C(=N\OC(=O)N1CCCCC1)c1nccs1` showed an inhibition on Serine hydrolase RBBP9 [4] of 0%.

With `COc1ccc(C(=O)O/N=C(\C)c2nccs2)cc1`, the inhibition is 39% at Serine hydrolase RBBP9 [2] and 60% at Serine hydrolase RBBP9 [4]. For the same compound, the inhibition entry at Serine hydrolase RBBP9 [3] is “inactive”. This compound registered an IC50 at Serine hydrolase RBBP9 [1] of 9200 nM.

For `COc1ccc(C(=O)O/N=C2/C=C(C)C(=O)C=C2C)cc1`, the inhibition on Serine hydrolase RBBP9 [4] stood at 76%.

With `C/C(=N\OC(=O)c1ccccc1F)c1nccs1`, on Serine hydrolase RBBP9 [4], the inhibition is 64%.

With `C/C(=N\OC(=O)c1c(-c2c(F)cccc2Cl)noc1C)c1nccs1`, on Serine hydrolase RBBP9 [4], the inhibition turned out to be 14%.

On Serine hydrolase RBBP9 [1], `C/C(=N\OC(=O)c1ccc(F)cc1)c1nccs1` came in with an IC50 of 5700 nM. The compound further registered an inhibition at Serine hydrolase RBBP9 [4] of 76%.

With `COc1ccc(C(=O)ON=C2C=C(C)C(=O)C(C)=C2)cc1`, the IC50 at Serine hydrolase RBBP9 [6] and on Serine hydrolase RBBP9 [1] was 1500 nM throughout. The same compound showed an inhibition at Serine hydrolase RBBP9 [4] of 93%.

For `C/C(=N\OC(=O)c1ccc(-c2ccccc2)cc1)c1nccs1`, the inhibition at Serine hydrolase RBBP9 [4] was determined as 4%.

Regarding `C/C(=N\OC(=O)c1c(-c2c(Cl)cccc2Cl)noc1C)c1nccs1`, at Serine hydrolase RBBP9 [4], the inhibition came to 8%.

In turn, `C/C(=N\OC(=O)c1cccc(Cl)c1)c1nccs1` yielded an inhibition at Serine hydrolase RBBP9 [4] of 63%.

Turning to `C/C(=N\OC(=O)/C=C/c1ccccc1)c1nccs1`, on Serine hydrolase RBBP9 [4], the inhibition turned out to be 42%.

In the case of `COc1ccc(C(=O)ON=C2C(C)=CC(=O)C=C2C)cc1`, the inhibition at Serine hydrolase RBBP9 [4] was determined as 48%.

As for `C/C(=N\OC(=O)c1ccc([N+](=O)[O-])cc1)c1nccs1`, the inhibition on Serine hydrolase RBBP9 [4] was 15%.

For the compound `C/C(=N\OC(=O)c1cccc(C(F)(F)F)c1)c1nccs1`, the inhibition on Serine hydrolase RBBP9 [4] is 46%.

`C/C(=N\OC(=O)C1CCCCC1)c1nccs1` had an IC50 on Serine hydrolase RBBP9 [1] of 640 nM. On Serine hydrolase RBBP9 [4], this compound displayed an inhibition of 91%.

For `C/C(=N\OC(=O)c1ccc(I)cc1)c1nccs1`, the inhibition at Serine hydrolase RBBP9 [4] worked out at 66%.

Regarding `C/C(=N\OC(=O)c1ccccc1)c1nccs1`, at Serine hydrolase RBBP9 [4], the inhibition worked out at 62%.

Take `CC1=CC(=NOC(=O)/C=C/c2ccccc2)C=C(C)C1=O`: the inhibition was 79% at Serine hydrolase RBBP9 [2] and 78% on Serine hydrolase RBBP9 [4]. Also, the inhibition entry in assay [7] is “Active”. Moreover, the IC50 at Serine hydrolase RBBP9 [1] turned out to be 1200 nM.

Compound `C/C(=N\OC(=O)c1cc(F)ccc1F)c1nccs1` had an inhibition on Serine hydrolase RBBP9 [4] of 66%.

Consider `CC(=O)O/N=C(\C)c1nccs1`, for which the inhibition at Serine hydrolase RBBP9 [4] is 0%.
